According to patent publication US20150057316A1, “NOVEL SULFONATE-BASED TRIMEBUTINE SALTS” (GICARE PHARMA INC., priority 2012, published 2015):
Where a name gives a salt, the structure may show the parent alone. Read-outs that look alike come from different tables or passages of the source.

Assays:
[1] = 100 μM, 37° C.; simulated gastric fluid pH 1.2 up to 60 min, simulated intestinal fluid pH 6.8 and acetate buffer pH 5 up to 180 min
Protocol: Pyridinium 3-thiocarbamoyl-benzenesulfonate and pyridinium 4-thiocarbamoyl-benzenesulfonate (100 μM) were separately incubated at 37° C. in simulated gastric fluid (pH 1.2; without pepsin) up to 60 min, in simulated intestinal fluid (pH 6.8, without procreatin) up to 180 min, and in acetate buffer (pH 5) up to 180 min. At time points of 0, 30, 60, 120 and 180 min, an aliquot of 10 μL of samples were removed and added into vials containing […] internal standard (labetalol) in a mixture of 25:75 acetonitrile:water. Samples were analyzed by HPLC-MS/MS (ESI-, MRM) to monitor disappearance of its counter-ion over the time.

Caco-2 cells = assay: Caco-2 bidirectional permeability; assay type: in vitro ADME, human; conditions: for % Recovery A − B / Papp A − B: apical to basolateral; for % Recovery A − B / Papp A − B / % Recovery B − A / Papp B − A: 2-hr; for % Recovery B − A / Papp B − A: basolateral to apical; for Permeability: class from Papp A-B; for Significant Efflux: significant: efflux ratio above 3.0 and Papp B-A >1.0×10^−6 cm/s; for Efflux ratio: (Papp B − A)/(Papp A − B)
Excerpt: (§1) Such a procedure helps understanding the suitability of the compound for oral dosing by measuring the rate of transport of the molecule across the Caco-2 cells, which have characteristics that resemble intestinal epithelial cells. Transport in both directions (apical to basolateral (A-B) and basolateral to apical (B-A)) across the cell monolayer was monitored over a 2-hr time period in order to evaluate the efflux ratio, an indicator of whether the compound undergoes significant active efflux or not. The permeability coefficient (Papp) is calculated from the equation: […]
(§2) Where dQ/dt is the rate of permeation of the drug across the cells, Co is the donor compartment concentration at time zero and A is the area of the cell monolayer. Co is obtained from analysis of the dosing solution at the start of the experiment. The analysis method used was LCMS quantification.
(§3) A permeability of (Papp A-B)<1.0×10^−6 cm/s is considered low, whereas a permeability of (Papp A-B)>1.0×10^−6 cm/s is considered high. A significant efflux is generally associated with an efflux ratio above 3.0 and a (Papp B-A)>1.0×10^−6 cm/s in these assay conditions.

[2] = solid-state stability of trimebutine salts of carboxylic acids; conditions: 1:1 molar ratio; salts dissociate with heat and/or time
[3] = quantification of counter-ion and metabolites in urine and feces of rats; assay type: in vivo; conditions: 500 mg/kg p.o., 48 hr collection
Protocol: A preliminary toxicological evaluation of the compound was done in 250-300 g male Sprague-Dawley rats. Animals were randomized into one of three dosing group, i.e. 250, 500 or 1,000 mg/kg administered by oral gavage. Following administration of the test article, animals were observed hourly for the first 8 hr post-dosing for clinical signs and twice daily thereafter until termination on Day 7. Three animals per group were sacrificed by exsanguination under general anesthesia at 24-hr post dosing or on Day 7 and a gross necropsy was performed in all animals. Additionally, all three rats having received the 500 mg/kg dose and scheduled for sacrifice on Day 7 were placed in individual metabolic cages immediately following test article administration, in order to collect feces and urine during 48 hr. Blood samples were collected terminally from each rat for hematology and serum chemistry evaluation.
After proper urine and feces samples preparation, trimebutine 3-thiocarbamoyl-benzenesulfonate and its two metabolites were assayed by HPLC-MS/MS (ESI-), in MRM mode. Calibration curves were prepared for each analyte, in both matrices (diluted blank urine and diluted blank feces).

dog hepatocytes = assay: in-vitro metabolism over dog hepatocytes; conditions: 10 μM, up to 120 min at 37° C.
Protocol: (§4) Human, dog and rat cryopreserved hepatocytes (Celsis-IVT; n=10 pooled donors) were thawed according to the recommended protocol of the cell provider. Cells were then diluted to 1 million viable cells per mL, plated in a 96-well plate (100 μL per well), and pre-incubated 20 min at 37° C. under 95:5 O2:CO2 atmosphere. Following addition of test compounds (10 μM; 1 μL of 1 mM stock solution (95:5 acetonitrile/DMSO) per well), cells were incubated with lid on up to 120 min at 37° C. under 95:5 O2:CO2 atmosphere. At time points 0, 15, 60 and 120 min, 100 μL of acetonitrile containing an internal standard (1 μM labetalol) was added to quench incubates, and the plate was centrifuged (5 min; 15K rpm). Supernatant was diluted 1:2 with water and analyzed by HPLC-MS/MS (ESI-). The MS2 scan mode was used instead of the MRM mode, in order to manually extract the Extracted Ion Current (EIC) of two potential metabolites: 3-cyanobenzenesulfonate and sodium 3-sulfobenzoate.

rat hepatocytes = assay: in-vitro metabolism over rat hepatocytes; conditions: 10 μM, up to 120 min at 37° C.
Protocol: as §4

human hepatocytes = assay: in-vitro metabolism over human hepatocytes; conditions: 10 μM, up to 120 min at 37° C.
Protocol: as §4

[4] = Caco-2 bidirectional permeability; assay type: in vitro ADME, human; conditions: human; for efflux ratio at 2 h: (Papp B − A)/(Papp A − B)
Excerpt: as §1, §2, §3

Sprague-Dawley rats = assay: p.o. pharmacokinetic study in rats, toxicological assessment; assay type: in vivo; conditions: single dose of 230 and 460 mg/kg p.o.
Protocol: In order to evaluate the absolute bioavailability of trimebutine 4-toluenesulfonate (Example 22), an in-vivo pharmacological study was carried out in 6 Sprague-Dawley rats, which were administered a single dose of 230 and 460 mg/kg of the compound by the oral gavage route (p.o.). During this study, assessments included mortality checks and clinical observations. Blood samples were also collected for pharmacokinetic evaluations at 10 time points.

[5] = cited from earlier work
mu-opioid receptors = conditions: cited from earlier work
kappa-opioid receptors = kappa-opioid receptors (Cavia porcellus, UniProt P41144); conditions: cited from earlier work
[6] = Caco-2, apical to basolateral, 2-hr, read-out: % Recovery A − B
[7] = Caco-2, apical to basolateral, 2-hr, read-out: Papp A − B
[8] = Caco-2, class from Papp A-B, read-out: Permeability
[9] = Caco-2, basolateral to apical, 2-hr
[10] = Caco-2, basolateral to apical, 2-hr, read-out: % Recovery B − A

kappa-opioid receptors, sequence (P41144 whole entry): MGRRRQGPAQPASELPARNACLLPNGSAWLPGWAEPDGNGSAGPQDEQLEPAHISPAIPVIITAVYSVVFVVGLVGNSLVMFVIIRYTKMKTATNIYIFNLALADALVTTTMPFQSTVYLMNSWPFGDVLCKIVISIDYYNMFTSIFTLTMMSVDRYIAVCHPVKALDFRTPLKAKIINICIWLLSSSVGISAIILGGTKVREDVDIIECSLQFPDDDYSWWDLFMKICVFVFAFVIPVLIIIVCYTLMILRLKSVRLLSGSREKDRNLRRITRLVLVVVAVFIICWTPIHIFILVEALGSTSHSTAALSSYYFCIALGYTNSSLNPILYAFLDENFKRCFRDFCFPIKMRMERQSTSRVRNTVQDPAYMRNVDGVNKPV

With `N#Cc1cccc(S(=O)(=O)O)c1` [Example 14, 3-Cyano benzenesulfonic acid] as the compound, how does the melting point read?
Its melting point is 129 °C.

With `O=S(=O)(O)c1cccnc1` [Example 8, 3-Pyridinesulfonic acid] as the compound, how does the melting point read?
Its melting point is 119 °C.

For “pyridinium 4-thiocarbamoylbenzenesulfonate”, which “stability of counter-ion (disappearance over time)” value [1] is on record?
Its value is “stable in all these media”.

What about the “% Recovery A − B” value (Caco-2 cells) of the same compound?
Its value is 106%.

What about the “Papp A − B” value (Caco-2 cells) of the same compound?
Its value is under 0.54 ×10⁻⁶ cm/s.

And the “% Recovery B − A” value (Caco-2 cells)?
The value was 116%.

What about the “Papp B − A” value (Caco-2 cells) of the same compound?
The value was under 0.68 ×10⁻⁶ cm/s.

And the Permeability (Caco-2 cells)?
The Permeability was “Low (A permeability of (Papp A-B)<1.0×10^−6 cm/s is considered low)”.

And the “Significant Efflux” value (Caco-2 cells)?
The value was “No”.

For `O=S(=O)(O)c1ccccn1` [Example 7, 2-Pyridinesulfonic acid], which melting point is on record?
The melting point was 131 °C.

For “pyridinium 3-cyanobenzenesulfonate [Pyridinium 3-cyano-benzenesulfonate]”, which Efflux ratio (Caco-2 cells) is on record?
The Efflux ratio was 2.0.

And the “% Recovery A − B” value (Caco-2 cells)?
The value was 84%.

And the “Papp A − B” value (Caco-2 cells)?
Its value is 0.44 ×10⁻⁶ cm/s.

What about the “% Recovery B − A” value (Caco-2 cells) of the same compound?
Its value is 72%.

And the “Papp B − A” value (Caco-2 cells)?
The value was 0.87 ×10⁻⁶ cm/s.

And the Permeability (Caco-2 cells)?
The Permeability was “Low (A permeability of (Papp A-B)<1.0×10^−6 cm/s is considered low)”.

And the “Significant Efflux” value (Caco-2 cells)?
Its value is “No”.

Which “stability of the trimebutine salt in the solid state” value [2] does the source give for `O=C(O)c1ccccc1` [benzoic acid] here?
Its value is “unstable salt”.

Which results are given for `NC(=S)c1cccc(S(=O)(=O)O)c1`?
Efflux ratio (Caco-2 cells): 1.2; % Recovery A − B (Caco-2 cells): 63%; Papp A − B (Caco-2 cells): 0.28 ×10⁻⁶ cm/s; % Recovery B − A (Caco-2 cells): 82%; Papp B − A (Caco-2 cells): 0.33 ×10⁻⁶ cm/s; Permeability (Caco-2 cells): Low (A permeability of (Papp A-B)<1.0×10^−6 cm/s is considered low); Significant Efflux (Caco-2 cells): No; 3-cyanobenzenesulfonate found in feces, share of administered dose [3]: about 4%; 3-sulfobenzoate found, share of administered dose [3]: 0.3%; share of total counter-ion administered orally found in feces [3]: About 80%; share of total counter-ion administered orally found in urine [3]: ~20%; metabolic stability (dog hepatocytes): remained intact; metabolic stability (rat hepatocytes): remained intact; metabolic stability (human hepatocytes): remained intact

For `CCC(COC(=O)c1cc(OC)c(OC)c(OC)c1)(c1ccccc1)N(C)C` (centres unmarked) [Example 22, trimebutine 4-toluenesulfonate salt], which recovery at 2 h [4, 6] is on record?
Its recovery at 2 h is 58%.

What about the Papp A→B at 2 h [4, 7] of the same compound?
Its Papp A→B at 2 h is 23.9 ×10⁻⁶ cm/s.

What about the Papp A→B at 2 h [4, 8] of the same compound?
The Papp A→B at 2 h was over 1 ×10⁻⁶ cm/s.

And the efflux ratio at 2 h ([4]; Caco-2)?
Its efflux ratio at 2 h is 0.9.

What about the Papp B→A at 2 h [4, 9] of the same compound?
The Papp B→A at 2 h was 21.7 ×10⁻⁶ cm/s.

What about the recovery at 2 h [4, 10] of the same compound?
Its recovery at 2 h is 76%.

And the Permeability (Caco-2 cells)?
The Permeability was “high”.

And the “Significant Efflux” value (Caco-2 cells)?
The value was “No”.

What about the bodyweight (Sprague-Dawley rats) of the same compound?
The bodyweight was “no change in bodyweight”.

What about the death (Sprague-Dawley rats) of the same compound?
Its death is “no death reported”.

And the toxicity (Sprague-Dawley rats)?
The toxicity was “no indication of any toxicity”.

Which melting point does the source give for `NC(=O)c1cccc(S(=O)(=O)O)c1` (as salt: potassium) here?
Its melting point is 223 °C.

For `CCC(COC(=O)c1cc(OC)c(OC)c(OC)c1)(c1ccccc1)N(C)C` (centres unmarked) [Trimebutine, 3,4,5-trimethoxybenzoic acid 2-(dimethylamino)-2-phenylbutylester], which pKa [5] is on record?
Its pKa is about 6.25.

What about the “affinity to mu-opioid receptors” value (mu-opioid receptors) of the same compound?
Its value is “micromolar”.

And the “affinity to kappa-opioid receptors” value (kappa-opioid receptors)?
Its value is “micromolar”.

What about the metabolic stability (dog hepatocytes) of the same compound?
The metabolic stability was “capable of metabolizing trimebutine”.

And the metabolic stability (rat hepatocytes)?
Its metabolic stability is “capable of metabolizing trimebutine”.

What about the metabolic stability (human hepatocytes) of the same compound?
Its metabolic stability is “capable of metabolizing trimebutine”.

Which results are given for `CCC(COC(=O)c1cc(OC)c(OC)c(OC)c1)(c1ccccc1)N(C)C` (centres unmarked)?
Efflux ratio (Caco-2 cells): 1.0; % Recovery A − B (Caco-2 cells): 51%; Papp A − B (Caco-2 cells): 23.2 ×10⁻⁶ cm/s; % Recovery B − A (Caco-2 cells): 62%; Papp B − A (Caco-2 cells): 24.3 ×10⁻⁶ cm/s; Permeability (Caco-2 cells): High (a permeability of (Papp A-B)>1.0×10^−6 cm/s is considered high)

For `O=C([O-])c1cccc(S(=O)(=O)O)c1.[Na+]` [Sodium 3-sulfobenzoate, reference compound], which recovery at 2 h [4, 6] is on record?
The recovery at 2 h was 93%.

What about the Papp A→B at 2 h [4, 7] of the same compound?
The Papp A→B at 2 h was 0.59 ×10⁻⁶ cm/s.

And the Papp A→B at 2 h [4, 8]?
The Papp A→B at 2 h was under 1 ×10⁻⁶ cm/s.

What about the efflux ratio at 2 h ([4]; Caco-2) of the same compound?
Its efflux ratio at 2 h is 1.

What about the Papp B→A at 2 h [4, 9] of the same compound?
The Papp B→A at 2 h was 0.59 ×10⁻⁶ cm/s.

What about the recovery at 2 h [4, 10] of the same compound?
The recovery at 2 h was 115%.

What about the “Significant Efflux” value (Caco-2 cells) of the same compound?
Its value is “No”.

Which pKa [5] does the source give for `NC(=S)c1ccc(C(=O)O)cc1` [4-thiocarbamoylbenzoic acid] here?
Its pKa is about 3.3.

And the “stability of the trimebutine salt in the solid state” value [2]?
Its value is “unstable salt”.
